Laboratory results reported in PMC6592620 (Biochemistry, 2018).

Target: phiYFP (yellow fluorescent protein from the jellyfish Phialidium sp.) (Phialidium sp. SL-2003, UniProt Q6RYS7)
Assay: fluorescence titration, single site binding model

- Kd: 50 ± 2 mM
Structure (SMILES): I [iodide]
